Some test systems named below: NCI/ADR-RES; MOLT-4; DU-145; MCF7; MDA-MB-435; MDA-MB-231; MDA-N; CAKI-1; NCI-H522; BT-549; OVCAR-5; Malme-3M; SR; PC-3; OVCAR-8; A549; Hs-578T; T47D.
Holding throughout (experiment): NCI tumour cell line growth inhibition, 48 h

The results in this text go back to ChEMBL document CHEMBL1201862, “PubChem BioAssay data set” (2004).

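48-hour exposure; five concentrations; linearly interpolated endpoints. GI50 marks 50% less growth.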 Activity calls are given as the source filed them. Cut-off read from the data, not from the text of the source: active = GI50 up to about 1.1 µM and inactive = higher. A value given as a limit tells only on which side of the number the result lay.

As to `O[C@@]12Cc3c([nH]c4ccccc34)[C@@H]3Oc4cccc5c4[C@@]31CCN(CC1CC1)[C@@H]2C5`, the GI50 in the experiment on NCI/ADR-RES was 33.4 µM (inactive); with MOLT-4, 19.6 µM (inactive); in the experiment with DU-145 it was 27 µM (inactive); in the experiment with MCF7, 17.5 µM (inactive); in the experiment on MDA-MB-435, 15.7 µM (inactive); in the experiment with MDA-MB-231, 25.7 µM (inactive). Besides, the GI50 was 19.6 µM (inactive) in the experiment with MDA-N; 19.2 µM (inactive) in the experiment with CAKI-1; 22.8 µM (inactive) in the experiment on NCI-H522; 19.8 µM (inactive) in the experiment on BT-549; 29 µM (inactive) with OVCAR-5; 19.5 µM (inactive) in the experiment with Malme-3M. The GI50 with SR is 34 µM (inactive); in the experiment with PC-3, 17 µM (inactive); in the experiment on OVCAR-8, 15.1 µM (inactive); in the experiment on A549, 27 µM (inactive).
With `CSc1ncc2c(n1)sc1c(=O)n(-c3ccccc3)cnc12`, the GI50 with NCI/ADR-RES, with MOLT-4, in the experiment with DU-145, with MDA-MB-435, in the experiment on MDA-MB-231 and in the experiment on MDA-N was > 100 µM (inactive) throughout. Also, the GI50 in the experiment with Hs-578T, in the experiment on CAKI-1, with NCI-H522, in the experiment with BT-549, in the experiment with OVCAR-5 and in the experiment on Malme-3M was > 100 µM (inactive) throughout. The GI50 in the experiment on SR, with PC-3, with OVCAR-8, with T47D and in the experiment on A549 was > 100 µM (inactive) throughout.
With `CCSc1nc(N/N=C/c2cccs2)c2cnn(CO)c2n1`, the GI50 in the experiment with NCI/ADR-RES was 3.91 µM (inactive); with DU-145 it was 10.3 µM (inactive); with MCF7 it was 3.59 µM (inactive); with MDA-MB-435, 6.25 µM (inactive); in the experiment on MDA-MB-231, 18.3 µM (inactive); in the experiment on Hs-578T, 4.31 µM (inactive). Also, the GI50 is 2.66 µM (inactive) in the experiment with CAKI-1; 3.71 µM (inactive) with NCI-H522; 13.4 µM (inactive) in the experiment with OVCAR-5; 13.8 µM (inactive) in the experiment with Malme-3M; 5.9 µM (inactive) in the experiment with SR; 6.58 µM (inactive) with PC-3. The GI50 in the experiment on OVCAR-8 was 4.16 µM (inactive); in the experiment on T47D, 3.8 µM (inactive); in the experiment with A549, 7 µM (inactive).
As for `CCCCCCCCCCCCCCCCCc1cc(Cl)nc(Cl)n1`, the GI50 was > 100 µM (inactive) in the experiment on NCI/ADR-RES; > 100 µM (inactive) with MOLT-4; 36.6 µM (inactive) in the experiment on MCF7; > 100 µM (inactive) with MDA-MB-435; > 100 µM (inactive) in the experiment with Hs-578T; > 100 µM (inactive) in the experiment with BT-549. The GI50 with OVCAR-5, in the experiment with Malme-3M, with SR, in the experiment on PC-3, in the experiment with OVCAR-8 and in the experiment with A549 was > 100 µM (inactive) in each case.
Take `CC1(C)OC2OC(COC(=O)c3ccc(C#N)cc3)C3OC(C)(C)OC3C2O1` (stereo unspecified): the GI50 in the experiment on NCI/ADR-RES, with MOLT-4, with DU-145, in the experiment on MCF7, with MDA-MB-435 and in the experiment on MDA-MB-231 was > 75 µM (inactive) throughout. For the same molecule, the GI50 with MDA-N was > 75 µM (inactive); with CAKI-1, > 75 µM (inactive); in the experiment on NCI-H522, > 75 µM (inactive); in the experiment on BT-549, > 75 µM (inactive); with OVCAR-5, > 75 µM (inactive); in the experiment on Malme-3M, 61 µM (inactive). In addition, the GI50 in the experiment with SR, in the experiment on PC-3, in the experiment with OVCAR-8 and with A549 was > 75 µM (inactive) in each case.
On to `Nc1ccc(Sc2nnc(N)s2)cc1`, for which the GI50 with NCI/ADR-RES, with MOLT-4, in the experiment on MCF7, in the experiment on MDA-MB-435, with MDA-MB-231 and with MDA-N was > 100 µM (inactive) each time. For the same molecule, the GI50 in the experiment with Hs-578T, in the experiment on NCI-H522, with OVCAR-5, in the experiment with SR, in the experiment with PC-3 and in the experiment on OVCAR-8 was > 100 µM (inactive) throughout. Besides, the GI50 with T47D and in the experiment on A549 was > 100 µM (inactive) in each case.
Take `CN(CCCNc1ccc2ncn3c4ccccc4c(=O)c1c23)CCCN1C(=O)c2cccc3cc([N+](=O)[O-])cc(c23)C1=O`: the GI50 with NCI/ADR-RES was 0.0376 µM (active); with MOLT-4 it was 0.00565 µM (active); with MCF7, 0.00541 µM (active); in the experiment with MDA-MB-435, 0.0219 µM (active); with MDA-MB-231 it was 0.0201 µM (active); with MDA-N, 0.0321 µM (active). In addition, the GI50 in the experiment on Hs-578T is 0.0879 µM (active); in the experiment on CAKI-1 it was 0.029 µM (active); with NCI-H522 it was 0.00775 µM (active); in the experiment with BT-549, 0.106 µM (active); with OVCAR-5, 1.14 µM (inactive); in the experiment with Malme-3M it was 0.0244 µM (active). The GI50 with SR is 0.001 µM (active); with PC-3, 1.14 µM (inactive); with OVCAR-8, 0.0205 µM (active); in the experiment on T47D, 1.18 µM (inactive); in the experiment on A549, 0.00628 µM (active).
As for `CC(C)(C)OC(=O)C1C(=O)NC(=O)CC1CC(OCc1ccccc1)C(COCc1ccccc1)OCc1ccccc1` (stereo unspecified), the GI50 with NCI/ADR-RES is 10 µM (inactive); in the experiment on MOLT-4, 2.88 µM (inactive); with DU-145 it was 23.6 µM (inactive); in the experiment with MCF7, 4.51 µM (inactive); with MDA-MB-435 it was 5.3 µM (inactive); in the experiment on MDA-N, 16.2 µM (inactive). Besides, the GI50 was 14 µM (inactive) in the experiment on Hs-578T; 5.48 µM (inactive) in the experiment on BT-549; 3.06 µM (inactive) in the experiment on Malme-3M; 3.87 µM (inactive) in the experiment with SR; 6.44 µM (inactive) with PC-3; 10.3 µM (inactive) with OVCAR-8. Moreover, the GI50 with A549 is 5.06 µM (inactive).
With `COC(=O)C1=C(C(=O)OC)C2(C)C=CC1O2` (stereo unspecified), the GI50 in the experiment with NCI/ADR-RES was 19.6 µM (inactive); with DU-145 it was 17.9 µM (inactive); with MCF7 it was 31.5 µM (inactive); with MDA-MB-435, 19.1 µM (inactive); with MDA-MB-231, 16.6 µM (inactive); in the experiment on Hs-578T, 26.4 µM (inactive). Moreover, the GI50 in the experiment with NCI-H522 is 2 µM (inactive); in the experiment on BT-549, 23.1 µM (inactive); with OVCAR-5, 17.6 µM (inactive); with Malme-3M, 2.92 µM (inactive); in the experiment on PC-3, 21.4 µM (inactive); with OVCAR-8, 17.4 µM (inactive). Besides, the results for the GI50 with T47D and in the experiment with A549 were 3.44 µM (inactive) and 99.8 µM (inactive), respectively.
As to `CNC1=C(C)C(=O)C2=C(C1=O)C(COC(N)=O)C1(OC)C3NC3CN21` (stereo unspecified), the GI50 in the experiment with MOLT-4 is 3.68 µM (inactive); in the experiment on MCF7, 0.107 µM (active); with MDA-MB-435 it was 1.6 µM (inactive); in the experiment with MDA-N it was 0.574 µM (active); in the experiment with Hs-578T it was 2.49 µM (inactive); with CAKI-1, 0.0653 µM (active). The GI50 is 0.427 µM (active) in the experiment with NCI-H522; 4.91 µM (inactive) with OVCAR-5; 0.571 µM (active) in the experiment with Malme-3M; 0.0462 µM (active) in the experiment with SR; 2.94 µM (inactive) in the experiment with PC-3; 0.644 µM (active) with OVCAR-8. Further, the GI50 is 1.5 µM (inactive) with T47D and 0.106 µM (active) in the experiment with A549.
As to `O=C1Sc2ccccc2/C1=N/Nc1ccccc1[N+](=O)[O-]`, the GI50 was > 100 µM (inactive) in the experiment on MOLT-4; > 100 µM (inactive) in the experiment on DU-145; 17 µM (inactive) with MCF7; > 100 µM (inactive) with MDA-MB-435; 57 µM (inactive) in the experiment on MDA-N; 36.1 µM (inactive) with Hs-578T. Further, the GI50 in the experiment with CAKI-1 was 77.3 µM (inactive); in the experiment on NCI-H522, > 100 µM (inactive); in the experiment with OVCAR-5 it was > 100 µM (inactive); in the experiment on Malme-3M, 94.8 µM (inactive); in the experiment with SR, > 100 µM (inactive); with PC-3, > 100 µM (inactive). For the same molecule, the GI50 is 56.4 µM (inactive) in the experiment on OVCAR-8, 10.2 µM (inactive) with T47D and > 100 µM (inactive) in the experiment with A549.
In the case of `O=C1CNc2cc(N3CCCCC3)ccc2N1`, the GI50 was > 100 µM (inactive) in the experiment on NCI/ADR-RES; > 100 µM (inactive) in the experiment with MOLT-4; > 100 µM (inactive) in the experiment on DU-145; > 100 µM (inactive) with MCF7; 60.4 µM (inactive) in the experiment on MDA-MB-435; 75.2 µM (inactive) in the experiment with MDA-N. The GI50 is 4.43 µM (inactive) in the experiment on Hs-578T; > 100 µM (inactive) in the experiment with NCI-H522; > 100 µM (inactive) in the experiment with BT-549; > 100 µM (inactive) with OVCAR-5; > 100 µM (inactive) in the experiment with Malme-3M; 74.6 µM (inactive) in the experiment on SR. Further, the GI50 with PC-3, with OVCAR-8, in the experiment on T47D and with A549 was > 100 µM (inactive) each time.
Regarding `COc1cc(O)cc(/C=C/c2ccc(O)cc2)c1`, the GI50 was 38.9 µM (inactive) with NCI/ADR-RES; 36 µM (inactive) in the experiment on MOLT-4; 39 µM (inactive) in the experiment with DU-145; 49.2 µM (inactive) in the experiment with MCF7; 31.3 µM (inactive) with MDA-MB-435; 16 µM (inactive) with MDA-MB-231. Also, the GI50 in the experiment on Hs-578T was 44.7 µM (inactive); with CAKI-1 it was 33.7 µM (inactive); with NCI-H522 it was 30.1 µM (inactive); in the experiment with BT-549 it was 13.6 µM (inactive); in the experiment on OVCAR-5 it was > 100 µM (inactive); in the experiment with Malme-3M, 32.6 µM (inactive). Further, the GI50 was 42 µM (inactive) with SR; 18 µM (inactive) in the experiment on PC-3; 23.8 µM (inactive) in the experiment on OVCAR-8; 44.7 µM (inactive) in the experiment with T47D; 27.7 µM (inactive) in the experiment with A549.
